The target in data set [1] is Voltage-gated inwardly rectifying potassium channel KCNH2 (Homo sapiens, UniProt Q12809).
Another data set relates to LN-18. The data set is described as follows: Antiproliferative activity against human LN-18 cells assessed as inhibition of cell growth incubated for 72 hrs MTS assay. It counts as functional, cell-based. The note with it: LN-18, 72 h. For orientation: Formazan colour is commonly taken as a measure of viable cells.
For data set [2], the system named is TMD8. The data set is described as follows: Antitumor activity against human TMD8 cells xenografted in mouse assessed as tumor growth inhibition at 10 mg/kg, po. It counts as functional. The settings on record: read-out: TGI. In general terms: In xenograft studies the graft and the host belong to different species.
Data set [3] has as its system TMD8. Kind of data set: cells. The note with it: Homo sapiens, TMD8, 72 h.
The next data set relates to DOHH-2. Kind of data set: cells. The settings on record: Homo sapiens, DOHH-2, 72 h.
The test system of the next data set is HT-29. Kind of data set: cells. The note with it: Homo sapiens, HT-29, 72 h.
In another data set the test system is PC-3. The data set is described as follows: cells. The note with it: Homo sapiens, PC-3, 72 h.
A further data set deals with A549. Kind of data set: cells. The note with it: Homo sapiens, A549, 72 h.
The subject of a further data set is PANC-1. The data set is described as follows: cells. The settings on record: Homo sapiens, PANC-1, 72 h.
Another data set deals with MDA-MB-231. The data set is described as follows: cells. The settings on record: Homo sapiens, MDA-MB-231, 72 h.
Data set [4] can be described thus: in vitro. The settings on record: human, liver microsomes. Background: Liver microsomes are vesicles of endoplasmic reticulum, rich in cytochrome P450 enzymes.
Data set [5] is described as follows: in vitro. The settings on record: dog, liver microsomes.
A short description of data set [6]: in vitro. The note with it: rat, liver microsomes.

These results are taken from ChEMBL document CHEMBL5518245, “Development of an Imidazopyridazine-Based MNK1/2 Inhibitor for the Treatment of Lymphoma” (J Med Chem, 2024).

Sequence of Voltage-gated inwardly rectifying potassium channel KCNH2 (Q12809 whole entry): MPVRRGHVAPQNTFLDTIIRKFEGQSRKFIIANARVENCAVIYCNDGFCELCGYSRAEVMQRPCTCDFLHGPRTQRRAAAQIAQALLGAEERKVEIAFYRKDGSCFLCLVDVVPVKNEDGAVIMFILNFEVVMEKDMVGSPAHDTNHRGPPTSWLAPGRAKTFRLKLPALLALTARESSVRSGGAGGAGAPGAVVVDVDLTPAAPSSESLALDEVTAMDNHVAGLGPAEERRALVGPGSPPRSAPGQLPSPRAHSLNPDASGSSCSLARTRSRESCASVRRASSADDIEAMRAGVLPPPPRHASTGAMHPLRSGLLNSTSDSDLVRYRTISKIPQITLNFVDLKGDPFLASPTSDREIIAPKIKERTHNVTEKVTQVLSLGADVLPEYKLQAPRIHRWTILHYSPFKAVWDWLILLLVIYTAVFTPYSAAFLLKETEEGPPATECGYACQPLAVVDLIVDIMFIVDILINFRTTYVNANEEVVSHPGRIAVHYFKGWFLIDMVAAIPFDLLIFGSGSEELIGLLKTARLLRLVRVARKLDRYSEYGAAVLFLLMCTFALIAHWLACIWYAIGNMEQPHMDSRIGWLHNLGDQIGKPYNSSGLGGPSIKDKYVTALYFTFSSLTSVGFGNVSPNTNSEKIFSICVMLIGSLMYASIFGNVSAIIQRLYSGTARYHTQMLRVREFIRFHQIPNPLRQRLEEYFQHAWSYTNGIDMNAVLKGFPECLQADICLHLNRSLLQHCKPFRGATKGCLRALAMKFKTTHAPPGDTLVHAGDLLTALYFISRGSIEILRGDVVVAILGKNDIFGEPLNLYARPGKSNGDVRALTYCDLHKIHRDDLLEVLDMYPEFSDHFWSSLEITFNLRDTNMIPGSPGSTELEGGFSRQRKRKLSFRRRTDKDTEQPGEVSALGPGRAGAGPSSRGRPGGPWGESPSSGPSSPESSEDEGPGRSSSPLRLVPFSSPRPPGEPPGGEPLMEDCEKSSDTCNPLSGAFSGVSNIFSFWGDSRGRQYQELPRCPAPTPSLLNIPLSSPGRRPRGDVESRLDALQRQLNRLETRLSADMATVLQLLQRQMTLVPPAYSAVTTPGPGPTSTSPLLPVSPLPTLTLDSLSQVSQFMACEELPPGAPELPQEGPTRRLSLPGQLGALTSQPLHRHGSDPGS

Take `O=C(c1ccc(-c2ccc3ncc(-c4cc5ccccc5o4)n3n2)cc1)N1CCC(N2CCCCC2)CC1`: the IC50 – broadly, the point on the concentration scale where inhibition reaches its midpoint – in data set [1] was greater than 30 µM.
For `O=C(c1ccc(-c2ccc3ncc(-c4cc5ccccc5o4)n3n2)cc1)N1CCOCC1`, in data set [1], the IC50 was greater than 30 µM.
Still for that read-out and setting: with `N[C@@H]1CCCN(C(=O)c2ccc(-c3ccc4ncc(-c5cc6ccccc6o5)n4c3)cc2)C1` the figure was 4.66 µM.
Regarding `Cc1cc(Nc2cc(N)ncn2)c(=O)n2c1C(=O)NC21CCCCC1` [TOMIVOSERTIB], the half-maximal inhibitory concentration (IC50) was 6.27 µM in the data set on LN-18; greater than 30 µM in data set [1]; greater than 50 µM with TMD8 [3]; 6.3 µM in the data set with DOHH-2; greater than 50 µM with HT-29; 29.4 µM with PC-3. For the same compound, the IC50 in the data set with A549 is greater than 50 µM; in the data set on PANC-1, greater than 50 µM; in the data set on MDA-MB-231, 45 µM. Further, the inhibition in vivo at 10 mg/kg in the data set with TMD8 [2] came to 75%. The half-life in the data set “in vitro [4]”, in the data set “in vitro [5]” and in “in vitro [6]” was greater than 120 min each time.
For the compound `N[C@@H]1CCCN(C(=O)c2ccc(-c3ccc4ncc(-c5cc6ccccc6o5)n4n3)cc2)C1`, the IC50 in [1] worked out at 5.82 µM.
The same measure, in the same setting: with `N[C@H]1CCCN(C(=O)c2ccc(-c3ccc4ncc(-c5cc6ccccc6o5)n4n3)cc2)C1` the figure was greater than 30 µM; with `NC1CCN(C(=O)c2ccc(-c3ccc4ncc(-c5cc6ccccc6o5)n4n3)cc2)CC1`, 7.98 µM.
Still for that read-out and setting: next, `CN(C)C1CCN(C(=O)c2ccc(-c3ccc4ncc(-c5cc6ccccc6o5)n4c3)cc2)CC1`: 1.03 µM.
Same read-out and setting: next, `NC1CCN(C(=O)c2ccc(-c3ccc4ncc(-c5cc6ccccc6o5)n4c3)cc2)CC1`: 4.4 µM; `CN(C)C1CCN(C(=O)c2ccc(-c3ccc4ncc(-c5cc6ccccc6o5)n4n3)cc2)CC1`: 2.97 µM.
`N#Cc1ccc(-c2cnc3ccc(-c4ccc(C(=O)N5CCOCC5)cc4)cn23)cc1` [TINODASERTIB]: the half-life (in general, how long it takes for the measured level to halve) in the data set “in vitro [4]” stood at 67.1 min; in the data set “in vitro [5]” it was 83.5 min; in “in vitro [6]”, 18.1 min.
